# Reference: BindingDB's records for patent US20240190872 (University of Illinois, 2024)
# Target: T1, Enoyl-[acyl-carrier-protein] reductase [NADH] (UniProt A0A6F8TJQ1)
# T1 sequence (A0A6F8TJQ1 whole entry): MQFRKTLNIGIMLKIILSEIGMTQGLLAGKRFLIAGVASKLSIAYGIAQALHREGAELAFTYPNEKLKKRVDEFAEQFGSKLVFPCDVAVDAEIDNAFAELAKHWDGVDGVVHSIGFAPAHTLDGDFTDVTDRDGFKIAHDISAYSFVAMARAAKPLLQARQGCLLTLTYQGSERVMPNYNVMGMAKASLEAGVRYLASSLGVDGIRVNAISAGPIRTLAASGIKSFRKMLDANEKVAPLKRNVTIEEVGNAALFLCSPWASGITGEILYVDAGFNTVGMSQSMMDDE
# Experiment: standard FabI enzyme assay
# Description: To probe the effects of varying ring systems and amine placement on FabI target engagement, the apparent inhibition constants (Kiapp) for select compounds were determined using purified FabI. The goal of these studies was two-fold, to comparatively assess fabimycin, Debio-1452-NH3, and Debio-1452, and to also assess differential activity against the E. coli and A. baumannii versions of FabI. FabI from E. coli and A. baumannii were recombinantly expressed and purified, and the ability for each compound to inhibit the activity of these enzymes was evaluated using a standard FabI enzyme assay.
smiles,measurement,value
"Cc1c(CN(C)C(=O)/C=C/c2cnc3c(c2)C[C@@H](N)C(=O)N3)oc2ccccc12 [US20240190872, Compound (+-)-Debio-1452-NH3]",Ki,114 nM
